Experimental data published in paper PMC9614474 (Plant Physiology, 2022).

Target: T1, ChElp2 (Colletotrichum higginsianum, UniProt H1UVH3)
T1 construct: gene ELP2
Details: 25 °C

T1 sequence (H1UVH3 19-176): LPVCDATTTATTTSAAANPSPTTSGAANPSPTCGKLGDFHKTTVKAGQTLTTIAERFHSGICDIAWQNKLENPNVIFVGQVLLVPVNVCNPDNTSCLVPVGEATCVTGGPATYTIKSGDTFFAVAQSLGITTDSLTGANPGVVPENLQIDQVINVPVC

## CC(=O)N[C@H]1[C@H](O[C@H]2[C@H](O)[C@@H](NC(C)=O)[C@H](O[C@H]3[C@H](O)[C@@H](NC(C)=O)C(O)O[C@@H]3CO)O[C@@H]2CO)O[C@H](CO)[C@@H](O[C@@H]2O[C@H](CO)[C@@H](O[C@@H]3O[C@H](CO)[C@@H](O[C@@H]4O[C@H](CO)[C@@H](O)[C@H](O)[C@H]4NC(C)=O)[C@H](O)[C@H]3NC(C)=O)[C@H](O)[C@H]2NC(C)=O)[C@@H]1O (stereo partly shown) [Chi6, hexaacetylchitohexaose]
  Kd: 5.03 ± 0.241 µM
